These results are taken from publication PMC10480042 (ACS applied materials & interfaces, 2023).

Series [1] deals with SH-SY5Y cells.
The target in series [2] is T1, Aβ42 (Homo sapiens, UniProt P05067). As to the kind of experiment: SEC-HPLC-UV of Aβ42 and Spike1058 co-aggregation. The format is biochemical. The note with it: molar ratio 1:2, 4 h, 37 °C, UV 220 nm, PBS pH 5.6. On the technique in general: In gel filtration, larger molecules generally elute earlier.
The target in series [3] is T1, Aβ42. In words: CD spectroscopy. The class given is biochemical. Conditions: co-incubation with Spike1058, dose-dependent, 48 h, 37 °C.
Series [4] concerns zebrafish embryos. The note with it: in vivo.
Series [5] deals with zebrafish embryos. The note with it: in vivo. This is another data set of the same source.
The target of series [6] is T1, Aβ42. As to the kind of experiment: biochemical. The class given is binding.
Series [7] concerns the target T1, Aβ42. The class given is biochemical.

No end group written: not given here.

T1 sequence (P05067 672-713): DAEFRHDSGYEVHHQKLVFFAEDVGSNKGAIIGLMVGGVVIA

HGVVFLHVTYV [Spike1058]: in series [1], the cell mortality result is on record as “elevated in a dose-dependent manner”, the “cell mortality vs Aβ control” value is on record as “less deleterious than Aβ control” and the “number of viable SH-SY5Y cells at increasing Spike:Aβ molar ratios” value is listed as “gradual decline in number”. Moreover, in series [1] (25 µM), the “impact on cell viability, less than Aβ control” value amounted to 11%. Further, the “viable SH-SY5Y cells compared with Aβ control group” value in series [1] (24 h) worked out at 22%. In addition, the “decrease of amount of Spike1058 in mixed Aβ-Spike1058 sample” value in series [2] is reported as 39.54%. The “increase of β-sheet content of Aβ by co-incubation (CD)” value in series [3] was 16-35%. Also, in series [4], the “hatching interference and mortality compared to control group” value was “pronounced hatching interference and mortality”; the “hatching rate in comparison to Aβ or Spike1058 alone” value is recorded as “significantly decreased”; the “influence on hatching and mortality rate relative to Aβ” value is listed as “more substantial influence than Aβ”; the “survival rate in comparison to Aβ or Spike1058 alone” value is “significantly decreased”. Besides, the “generation of biotic ROS, surpassing levels with Aβ or Spike1058 alone” value in series [5] is “significant increase”. In addition, the Kd (as a rule, the constant that tells how readily two partners part at equilibrium) in series [6] stood at 82.6 nM. Besides, in series [7], the “increase of Aβ's β-sheet content by co-incubation” value is 7-33%.
